According to patent US20230085307A1, “PYRIDAZINONE COMPOUND AND HERBICIDE” (NISSAN CHEMICAL CORPORATION, priority 2019, published 2023):

Experiments:
Japanese bulrush = assay: Test Example 1: herbicidal activity, application before weed generation under submerged conditions (Table 16, symbol B); format: in vivo, Japanese bulrush (Schoenoplectus juncoides); details: amount of applied herbicide 320 g/ha
Method in brief: (§1)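 Alluvial soil was flooded to 4 cm depth, weed seeds were sown mixed and 2.5-leaf rice seedlings were transplanted. On sowing day, the compound's emulsion, diluted in water to a set dose, was applied to the water surface. Plants grew at 25–30 °C and were scored 0–5 after three weeks.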

oval-leafed pondweed = assay: Test Example 1: herbicidal activity, application before weed generation under submerged conditions (Table 16, symbol C); format: in vivo, oval-leafed pondweed (Monochoria vaginalis); details: amount of applied herbicide 320 g/ha
Method in brief: as §1

barnyard grass [1] = assay: Test Example 3: herbicidal effect by foliage application, Wagner pot (Table 18, symbol H); format: in vivo, barnyard grass (Echinochloa crus-galli); details: amount of applied herbicide 320 g/ha
Method in brief: (§2)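 Plants were sown in alluvial soil held under 0.1–0.5 cm standing water and grown 14 days in a greenhouse at 25–30 °C. An emulsifiable formulation, water-diluted to the set dose, was then sprayed onto the foliage, and effects were scored three weeks later using previously defined criteria.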

Chinese sprangletop = assay: Test Example 3: herbicidal effect by foliage application, Wagner pot (Table 18, symbol D); format: in vivo, chinese sprangletop (Leptochloa chinensis); details: amount of applied herbicide 320 g/ha
Method in brief: as §2

southern crabgrass [2] = assay: Test Example 4: herbicidal effect by soil treatment (Table 19, symbol F); format: in vivo, southern crabgrass (Digitaria ciliaris); details: amount of applied herbicide 320 g/ha
Method in brief: (§3)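 Emulsion of test compound, water-diluted to predetermined amount, sprayed on soil after sowing (seed depth ~1.5 cm, sterilized diluvial soil). Greenhouse, 25–30° C. Effect graded at three weeks post-spray.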

wild oat [3] = assay: Test Example 4: herbicidal effect by soil treatment (Table 19, symbol I); format: in vivo, wild oat (Avena fatua); details: amount of applied herbicide 320 g/ha
Method in brief: as §3

blackgrass [4] = assay: Test Example 4: herbicidal effect by soil treatment (Table 19, symbol J); format: in vivo, blackgrass (Alopecurus myosuroides); details: amount of applied herbicide 320 g/ha
Method in brief: as §3

Italian ryegrass = assay: Test Example 4: herbicidal effect by soil treatment (Table 19, symbol K); format: in vivo, Italian ryegrass (Lolium multiflorum); details: amount of applied herbicide 320 g/ha
Method in brief: as §3

redroot pigweed = assay: Test Example 4: herbicidal effect by soil treatment (Table 19, symbol N); format: in vivo, redroot pigweed (Amaranthus retroflexus); details: amount of applied herbicide 320 g/ha
Method in brief: as §3

false cleavers = assay: Test Example 4: herbicidal effect by soil treatment (Table 19, symbol Q); format: in vivo, false cleavers (Galium spurium); details: amount of applied herbicide 320 g/ha
Method in brief: as §3

southern crabgrass [5] = assay: Test Example 5: herbicidal effect by foliage application, plastic box (Table 20, symbol F); format: in vivo, southern crabgrass (Digitaria ciliaris); details: foliage application, 320 g/ha; for herbicidal effect on southern crabgrass (F): three weeks after application
Method in brief: (§4)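 Post-emergence foliar test in sterilized diluvial soil. Compound applied as water-diluted emulsion at a predetermined rate to 14-day-old plants; evaluation at three weeks.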

barnyard grass [6] = assay: Test Example 5: herbicidal effect by foliage application, plastic box (Table 20, symbol H); format: in vivo, barnyard grass (Echinochloa crus-galli); details: foliage application, 320 g/ha; for herbicidal effect on barnyard grass (H): three weeks after application
Method in brief: as §4

wild oat [7] = assay: Test Example 5: herbicidal effect by foliage application, plastic box (Table 20, symbol I); format: in vivo, wild oat (Avena fatua); details: foliage application, 320 g/ha; for herbicidal effect on wild oat (I): three weeks after application
Method in brief: as §4

blackgrass [8] = assay: Test Example 5: herbicidal effect by foliage application, plastic box (Table 20, symbol J); format: in vivo, blackgrass (Alopecurus myosuroides); details: foliage application, 320 g/ha; for herbicidal effect on blackgrass (J): three weeks after application
Method in brief: as §4

windgrass = assay: Test Example 5: herbicidal effect by foliage application, plastic box (Table 20, symbol L); format: in vivo, windgrass (Apera spica-venti); details: foliage application, 320 g/ha; for herbicidal effect on windgrass (L): three weeks after application
Method in brief: as §4

lambsquarters = assay: Test Example 5: herbicidal effect by foliage application, plastic box (Table 20, symbol O); format: in vivo, lambsquarters (Chenopodium album); details: foliage application, 320 g/ha; for herbicidal effect on lambsquarters (O): three weeks after application
Method in brief: as §4

persian speedwell = assay: Test Example 5: herbicidal effect by foliage application, plastic box (Table 20, symbol R); format: in vivo, Persian speedwell (Veronica persica); details: foliage application, 320 g/ha; for herbicidal effect on persian speedwell (R): three weeks after application
Method in brief: as §4

[9] = evaluated 3 weeks after application

| SMILES | Herbicidal effect, B: Japanese bulrush (Japanese bulrush) | Herbicidal effect, C: oval-leafed pondweed (oval-leafed pondweed) | Herbicidal effect on H (barnyard grass), foliage application (barnyard grass [1]) | Herbicidal effect on D (Chinese sprangletop), foliage application (Chinese sprangletop) | F: southern crabgrass, herbicidal effect grade (southern crabgrass [2]) | I: wild oat, herbicidal effect grade (wild oat [3]) | J: blackgrass, herbicidal effect grade (blackgrass [4]) | K: Italian ryegrass, herbicidal effect grade (Italian ryegrass) | N: redroot pigweed, herbicidal effect grade (redroot pigweed) | Q: false cleavers, herbicidal effect grade (false cleavers) | herbicidal effect on southern crabgrass (F) (southern crabgrass [5]) | herbicidal effect on barnyard grass (H) (barnyard grass [6]) | herbicidal effect on wild oat (I) (wild oat [7]) | herbicidal effect on blackgrass (J) (blackgrass [8]) | herbicidal effect on windgrass (L) (windgrass) | herbicidal effect on lambsquarters (O) (lambsquarters) | herbicidal effect on persian speedwell (R) (persian speedwell) | other results |
| --- | --- | --- | --- | --- | --- | --- | --- | --- | --- | --- | --- | --- | --- | --- | --- | --- | --- | --- |
| CCOc1ccc(-c2oc3ccc(F)cc3c2-c2c(O)c(C)nn(C)c2=O)cc1 [9-021] | 5 (Herbicidal rate of 90% or more (almost completely withered)) | 5 (Herbicidal rate of 90% or more (almost completely withered)) | 3 (Herbicidal rate of 40% or more and less than 70%) | 3 (Herbicidal rate of 40% or more and less than 70%) | 4 (Herbicidal rate of 70% or more and less than 90%) | 0 (Herbicidal rate of 5% or less (almost no effect)) | 4 (Herbicidal rate of 70% or more and less than 90%) | 5 (Herbicidal rate of 90% or more (almost completely withered)) | 5 (Herbicidal rate of 90% or more (almost completely withered)) | 0 (Herbicidal rate of 5% or less (almost no effect)) | 4 (Herbicidal rate of 70% or more and less than 90%) | 3 (Herbicidal rate of 40% or more and less than 70%) | 4 (Herbicidal rate of 70% or more and less than 90%) | 1 (Herbicidal rate of 5% or more and less than 20%) | 0 (Herbicidal rate of 5% or less (almost no effect)) | 3 (Herbicidal rate of 40% or more and less than 70%) | 5 (Herbicidal rate of 90% or more (almost completely withered)) |  |
| CCCOc1ccc(-c2oc3ccc(F)cc3c2-c2c(O)c(C)nn(C)c2=O)cc1 [9-023] | 5 (Herbicidal rate of 90% or more (almost completely withered)) | 5 (Herbicidal rate of 90% or more (almost completely withered)) | 5 (Herbicidal rate of 90% or more (almost completely withered)) | 3 (Herbicidal rate of 40% or more and less than 70%) | 4 (Herbicidal rate of 70% or more and less than 90%) | 0 (Herbicidal rate of 5% or less (almost no effect)) | 0 (Herbicidal rate of 5% or less (almost no effect)) | 5 (Herbicidal rate of 90% or more (almost completely withered)) | 5 (Herbicidal rate of 90% or more (almost completely withered)) | 0 (Herbicidal rate of 5% or less (almost no effect)) | 4 (Herbicidal rate of 70% or more and less than 90%) | 5 (Herbicidal rate of 90% or more (almost completely withered)) | 3 (Herbicidal rate of 40% or more and less than 70%) | 4 (Herbicidal rate of 70% or more and less than 90%) | 4 (Herbicidal rate of 70% or more and less than 90%) | 5 (Herbicidal rate of 90% or more (almost completely withered)) | 5 (Herbicidal rate of 90% or more (almost completely withered)) |  |
| CSc1ccc(-c2oc3ccc(F)cc3c2-c2c(O)c(C)nn(C)c2=O)cc1 [9-037] | 0 (Herbicidal rate of 5% or less (almost no effect)) | 0 (Herbicidal rate of 5% or less (almost no effect)) | 5 (Herbicidal rate of 90% or more (almost completely withered)) | 2 (Herbicidal rate of 20% or more and less than 40%) | 4 (Herbicidal rate of 70% or more and less than 90%) | 0 (Herbicidal rate of 5% or less (almost no effect)) | 0 (Herbicidal rate of 5% or less (almost no effect)) | 5 (Herbicidal rate of 90% or more (almost completely withered)) | 5 (Herbicidal rate of 90% or more (almost completely withered)) | 0 (Herbicidal rate of 5% or less (almost no effect)) | 4 (Herbicidal rate of 70% or more and less than 90%) | 4 (Herbicidal rate of 70% or more and less than 90%) | 5 (Herbicidal rate of 90% or more (almost completely withered)) | 2 (Herbicidal rate of 20% or more and less than 40%) | 5 (Herbicidal rate of 90% or more (almost completely withered)) | 5 (Herbicidal rate of 90% or more (almost completely withered)) | 5 (Herbicidal rate of 90% or more (almost completely withered)) |  |
| COCCOc1ccc(-c2oc3ccc(F)cc3c2-c2c(O)c(C)nn(C)c2=O)cc1 [9-045] | 5 (Herbicidal rate of 90% or more (almost completely withered)) | 5 (Herbicidal rate of 90% or more (almost completely withered)) | 5 (Herbicidal rate of 90% or more (almost completely withered)) | 3 (Herbicidal rate of 40% or more and less than 70%) | 5 (Herbicidal rate of 90% or more (almost completely withered)) | 0 (Herbicidal rate of 5% or less (almost no effect)) | 5 (Herbicidal rate of 90% or more (almost completely withered)) | 5 (Herbicidal rate of 90% or more (almost completely withered)) | 5 (Herbicidal rate of 90% or more (almost completely withered)) | 0 (Herbicidal rate of 5% or less (almost no effect)) |  |  |  |  |  |  |  | F (southern crabgrass) herbicidal effect grade (southern crabgrass [5]; [9]): 5 (Herbicidal rate of 90% or more (almost completely withered)); H (barnyard grass) herbicidal effect grade (barnyard grass [6]; [9]): 5 (Herbicidal rate of 90% or more (almost completely withered)); I (wild oat) herbicidal effect grade (wild oat [7]; [9]): 2 (Herbicidal rate of 20% or more and less than 40%); J (blackgrass) herbicidal effect grade (blackgrass [8]; [9]): 5 (Herbicidal rate of 90% or more (almost completely withered)); L (windgrass) herbicidal effect grade (windgrass; [9]): 3 (Herbicidal rate of 40% or more and less than 70%); O (lambsquarters) herbicidal effect grade (lambsquarters; [9]): 5 (Herbicidal rate of 90% or more (almost completely withered)); R (persian speedwell) herbicidal effect grade (persian speedwell; [9]): 5 (Herbicidal rate of 90% or more (almost completely withered)) |
